Tests used:
[1] = system: clathrin-mediated endocytosis; assay: FITC-labelled transferrin uptake (validation of dynasore); format: cell-based, human; settings: 80 μM, 30 min pre-incubation, keratinocytes
Experimental: In an embodiment the HaCaT keratinocyte cells were cultured on 24 well plates (1×10^6 cells/well) and inhibited by one of the following chemicals during 30 min before adding a suspension of Rhodamine-labelled NPs (15 μg/mL): dynasor (100 μM), cytochalasin D (100 μM), nocodazole (25 uM), filipin III (1 μM) and polyinosinic acid (100 μg/mL), 5-(N-ethyl-N-isopropyl)amiloride (EIPA), dextran sulfate. The inhibitor concentrations were based in values reported in literature and further validated by us to have no cytotoxic effect over the period of the assay (6 h), as confirmed by viability assay. The incubation of the cells with NPs for different times was performed in the presence of the inhibitor. As controls, HaCaT keratinocyte cells without NPs and cells incubated with NPs without inhibitor were used. At the end of each time point, cells were centrifuged at 1300 rpm, 20° C. for 5 min, washed 3 times with cold PBS and then resuspended in PBS containing 2.5% FBS (500 μL) for FACS analysis. A total of 10,000 events were obtained per measurement. To validate the inhibitory activity of dynasor it were performed uptake studies of FITC-labeled transferrin, known to selectively enter cells via clathrin-mediated endocytosis. […] Cells were then evaluated as before.

platelets = assay: Platelet activation (CD62P expression) in whole peripheral blood; format: cell-based, human; settings: positive control
Experimental: In an embodiment, to evaluate the hemocompatibility of Au NPs and LL37-Au NPs, the induction of platelet activation was tested. Platelet activation was measured by the flow cytometric quantification of CD62P (P-selectin) expression. CD62P is a component of the α-granule membrane of resting platelets that is expressed on the platelet surface membrane only after α-granule secretion, which occurs during platelet activation. Platelets are very sensitive to in vitro activation and aggregation, therefore, the less they are manipulated the better, for this reason the whole peripherical blood (diluted in tyrode buffer) were incubated with the NPs instead of isolating platelet rich plasma. […] As positive control it was used ADP, a platelet activator, which induced the activation of 40% of the platelets (FIG. 13). […] In contrast, HUVECs were more sensitive to soluble LL37 than HaCaT showing cytotoxic effect at a concentration of 10 μg/mL and 30 μg/mL, respectively. Furthermore, LL37-Au NPs have lower cytotoxic and impact on membrane potential than soluble peptide that for the same concentration of LL37 (up to 100 μg/mL). Differences in the cell membrane composition between HUVECs and HaCaT might account for the differences between endothelial and epithelial cells response on LL37 cytotoxicity as supported by the result of membrane potential analysis (FIG. 13d).

Row | SMILES | internalisation of FITC-labelled transferrin [1] | activated platelets (platelets) [%]
1 | O=C(N/N=C/c1ccc(O)c(O)c1)c1cc2ccccc2cc1O [Dynasore, dynasore] | inhibits the internalisation of transferrin | 
2 | Nc1ncnc2c1ncn2[C@@H]1O[C@H](COP(=O)(O)OP(=O)(O)O)[C@@H](O)[C@H]1O [ADP] |  | 40
